Laboratory results from patent publication US9249102B2 (priority 2012, dated 2016).

Each molecule was assayed on Haemonchus contortus (assay: Method A: Haemonchus contortus L1 larvae, microtitre plate screen). Conditions: 96 h, read-out: motility inhibition.

**Q.** For O=C(NCCO[C@H]1CC[C@H](Nc2ccc([N+](=O)[O-])c(C(F)(F)F)c2)CC1)C(=O)Nc1ccc2ccccc2c1 [Compound 75, N-(naphthalen-2-yl)-N-[2-[(4-[[4-nitro-3-(trifluoromethyl)phenyl]amino]cyclohexyl)oxy]ethyl]ethanediamide], which inhibition at 5 µg/mL is on record?
**A.** Its inhibition at 5 µg/mL is ≥ 90%.

**Q.** For O=C(NCCO[C@H]1CC[C@H](Nc2ccc([N+](=O)[O-])c(C(F)(F)F)c2)CC1)C(=O)Nc1ccc2cc(F)ccc2n1 [Compound 239, N^1-(6-fluoroquinolin-2-yl)-N^2-(2-(-4-(4-nitro-3-(trifluoromethyl)phenylamino)cyclohexyloxy)ethyl)oxalamide], which inhibition at 5 µg/mL is on record?
**A.** The inhibition at 5 µg/mL was ≥ 90%.

**Q.** For CC(Cc1cc2cc(C(F)(F)F)ccc2o1)N1CCN(C(=O)CO[C@H]2CC[C@H](Nc3ccc([N+](=O)[O-])c(C(F)(F)F)c3)CC2)CC1 (stereo partly drawn) [Compound 330, 1-[4-[1-methyl-2-[5-(trifluoromethyl)benzofuran-2-yl]ethyl]piperazin-1-yl]-2-[4-[4-nitro-3-(trifluoromethyl)anilino]cyclohexoxy]ethanone], which inhibition at 5 µg/mL is on record?
**A.** Its inhibition at 5 µg/mL is ≥ 90%.

**Q.** O=C(CO[C@H]1CC[C@H](Nc2ccc([N+](=O)[O-])c(C(F)(F)F)c2)CC1)N1CCN(C(=O)c2nc3cc(C(F)(F)F)ccc3s2)CC1 [Compound 338, 2-[(4-[[4-nitro-3-(trifluoromethyl)phenyl]amino]cyclohexyl)-oxy]1-[4-[5-(trifluoromethyl)benzothiazole-2-carbonyl]piperazin-1-yl]ethan-1-one] was tested. Which inhibition at 5 µg/mL did it give?
**A.** Its inhibition at 5 µg/mL is ≥ 90%.

**Q.** For O=C(CO[C@H]1CC[C@H](Nc2ccc([N+](=O)[O-])c(C(F)(F)F)c2)CC1)N1CCN(c2nc3cc(C(F)(F)F)ccc3o2)CC1 [Compound 400, 2-[4-(4-nitro-3-trifluoromethyl-phenylamino)-cyclohexyloxy]-1-[4-(5-trifluoromethyl-benzooxazol-2-yl)-piperazin-1-yl]-ethanone], which inhibition at 5 µg/mL is on record?
**A.** The inhibition at 5 µg/mL was ≥ 90%.

**Q.** How did the inhibition at 5 µg/mL turn out when C[C@@H]1CN(Cc2nc3cc(F)ccc3s2)[C@@H](C)CN1C(=O)CO[C@H]1CC[C@H](Nc2ccc([N+](=O)[O-])c(C(F)(F)F)c2)CC1 [Compound 370, 1-[(2R,5S)-4-(5-fluoro-benzothiazol-2-ylmethyl)-2,5-dimethyl-piperazin-1-yl]-2-[4-(4-nitro-3-trifluoromethyl-phenylamino)-cyclohexyloxy]-ethanone] was run?
**A.** The inhibition at 5 µg/mL was ≥ 90%.

**Q.** Which inhibition at 5 µg/mL does the source give for O=C(CO[C@H]1CC[C@H](Nc2ccc([N+](=O)[O-])c(C(F)(F)F)c2)CC1)N1CCN(Cc2oc3ccc(Cl)cc3c2Cl)CC1 [Compound 316, 1-[4-(3,5-dichloro-benzofuran-2-ylmethyl)-piperazin-1-yl]-2-[4-(4-nitro-3-trifluoromethyl-phenylamino)-cyclohexyloxy]-ethanone] here?
**A.** The inhibition at 5 µg/mL was ≥ 90%.

**Q.** Which inhibition at 5 µg/mL does the source give for O=C(CO[C@H]1CC[C@H](Nc2ccc([N+](=O)[O-])c(C(F)(F)F)c2)CC1)N1CCN(c2ccc3cc(Br)ccc3c2F)CC1 [Compound 267, 1-[4-(6-bromo-1-fluoro-naphthalen-2-yl)-piperazin-1-yl]-2-[4-(4-nitro-3-trifluoromethyl-phenylamino)-cyclohexyloxy]-ethanone] here?
**A.** The inhibition at 5 µg/mL was ≥ 90%.

**Q.** How did the inhibition at 5 µg/mL turn out when O=C(CO[C@H]1CC[C@H](Nc2ccc([N+](=O)[O-])c(C(F)(F)F)c2)CC1)N1CCN(c2nc3cc(OC(F)(F)F)ccc3o2)CC1 [Compound 401, 2-[4-(4-nitro-3-trifluoromethyl-phenylamino)-cyclohexyloxy]-1-[4-(5-trifluoromethoxy-benzooxazol-2-yl)-piperazin-1-yl]-ethanone] was run?
**A.** The inhibition at 5 µg/mL was ≥ 90%.

**Q.** How did the inhibition at 5 µg/mL turn out when CC(CN1CCN(c2ccc3ccccc3n2)CC1)C(=O)N1CCC(Nc2ccc([N+](=O)[O-])c(C(F)(F)F)c2)CC1 (stereo not drawn) [Compound 91, 2-methyl-1-(4-[[4-nitro-3-(trifluoromethyl)phenyl]amino]piperidin-1-yl)-3-[4-(quinolin-2-yl)piperazin-1-yl]propan-1-one] was run?
**A.** Its inhibition at 5 µg/mL is ≥ 90%.

**Q.** Which inhibition at 5 µg/mL does the source give for C[C@@H]1CN(Cc2nc3cc(C(F)(F)F)ccc3s2)[C@@H](C)CN1C(=O)CO[C@H]1CC[C@H](Nc2ccc([N+](=O)[O-])c(C(F)(F)F)c2)CC1 [Compound 365, 1-[(2R,5S)-2,5-dimethyl-4-(5-trifluoromethyl-benzothiazol-2-ylmethyl)-piperazin-1-yl]-2-[4-(4-nitro-3-trifluoromethyl-phenylamino)-cyclohexyloxy]-ethanone] here?
**A.** The inhibition at 5 µg/mL was ≥ 90%.

**Q.** C[C@@H]1CN(Cc2ccc3cc(F)ccc3c2)[C@@H](C)CN1C(=O)CO[C@H]1CC[C@H](Nc2ccc([N+](=O)[O-])c(C(F)(F)F)c2)CC1 [Compound 357, 1-[(2R,5S)-4-(6-fluoro-naphthalen-2-ylmethyl)-2,5-dimethyl-piperazin-1-yl]-2-[4-(4-nitro-3-trifluoromethyl-phenylamino)-cyclohexyloxy]-ethanone] was tested. Which inhibition at 5 µg/mL did it give?
**A.** Its inhibition at 5 µg/mL is ≥ 90%.

**Q.** Which inhibition at 5 µg/mL does the source give for C[C@@H]1CN(C(=O)CO[C@H]2CC[C@H](Nc3ccc([N+](=O)[O-])c(C(F)(F)F)c3)CC2)C[C@H](C)N1Cc1ccc2cc(C(F)(F)F)ccc2c1 [Compound 374, 1-[(3S,5R)-3,5-dimethyl-4-(6-trifluoromethyl-naphthalen-2-ylmethyl)-piperazin-1-yl]-2-[4-(4-nitro-3-trifluoromethyl-phenylamino)-cyclohexyloxy]-ethanone] here?
**A.** The inhibition at 5 µg/mL was ≥ 90%.

**Q.** For O=C(NCCO[C@H]1CC[C@H](Nc2ccc([N+](=O)[O-])c(C(F)(F)F)c2)CC1)C(=O)Nc1ccc2cc(Cl)ccc2c1 [Compound 174], which inhibition at 5 µg/mL is on record?
**A.** Its inhibition at 5 µg/mL is ≥ 90%.

**Q.** With O=C(CO[C@H]1CC[C@H](Nc2ccc(S(=O)(=O)C(F)(F)F)cc2)CC1)N1CCN(c2nc3cc(C(F)(F)F)ccc3s2)CC1 [Compound 364, 2-[4-(4-trifluoromethanesulfonyl-phenylamino)-cyclohexyloxy]-1-[4-(5-trifluoromethyl-benzothiazol-2-yl)-piperazin-1-yl]-ethanone] as the molecule, how does the inhibition at 5 µg/mL read?
**A.** Its inhibition at 5 µg/mL is ≥ 90%.

**Q.** For N#Cc1ccc(N[C@H]2CC[C@H](OCC(=O)N3CCN(Cc4oc5ccc(F)cc5c4Cl)CC3)CC2)cc1C(F)(F)F [Compound 313, 4-(4-{2-[4-(3-chloro-5-fluoro-benzofuran-2-ylmethyl)-piperazin-1-yl]-2-oxo-ethoxy}-cyclohexylamino)-2-trifluoromethyl-benzonitrile], which inhibition at 5 µg/mL is on record?
**A.** Its inhibition at 5 µg/mL is ≥ 90%.

**Q.** How did the inhibition at 5 µg/mL turn out when N#Cc1ccc(N[C@H]2CC[C@H](OCC(=O)N3CCN(C(=O)C4Cc5cc(F)ccc5O4)CC3)CC2)cc1C(F)(F)F (stereo partly drawn) [Compound 86, 4-(4-{2-[4-(5-fluoro-2,3-dihydro-benzofuran-2-carbonyl)-piperazin-1-yl]-2-oxo-ethoxy}-cyclohexylamino)-2-trifluoromethyl-benzonitrile] was run?
**A.** Its inhibition at 5 µg/mL is ≥ 90%.

**Q.** How did the inhibition at 5 µg/mL turn out when C[C@@H]1CN(C(=O)CO[C@H]2CC[C@H](Nc3ccc([N+](=O)[O-])c(C(F)(F)F)c3)CC2)C[C@H](C)N1Cc1ccc2cc(F)ccc2c1 [Compound 372, 1-[(3S,5R)-4-(6-fluoro-naphthalen-2-ylmethyl)-3,5-dimethyl-piperazin-1-yl]-2-[4-(4-nitro-3-trifluoromethyl-phenylamino)-cyclohexyloxy]-ethanone] was run?
**A.** Its inhibition at 5 µg/mL is ≥ 90%.

**Q.** Which inhibition at 5 µg/mL does the source give for O=C(NCCO[C@H]1CC[C@H](Nc2ccc([N+](=O)[O-])c(C(F)(F)F)c2)CC1)C(=O)Nc1ccc2cc(C(F)(F)F)ccc2n1 [Compound 240, N^1-(2-(-4-(4-nitro-3-(trifluoromethyl)phenylamino)cyclohexyloxy)ethyl)-N^2-(6-(trifluoromethyl)quinolin-2-yl)oxalamide] here?
**A.** Its inhibition at 5 µg/mL is ≥ 90%.

**Q.** With CC1(CN2CCN(C(=O)CO[C@H]3CC[C@H](Nc4ccc([N+](=O)[O-])c(C(F)(F)F)c4)CC3)CC2)Cc2cc(F)ccc2O1 (stereo partly drawn) [Compound 377, 1-[4-[(5-fluoro-2-methyl-3H-benzofuran-2-yl)methyl]piperazin-1-yl]-2-[4-[4-nitro-3-(trifluoromethyl)anilino]cyclohexoxy]ethanone] as the molecule, how does the inhibition at 5 µg/mL read?
**A.** The inhibition at 5 µg/mL was ≥ 90%.

**Q.** With O=C(CO[C@H]1CC[C@H](Nc2ccc([N+](=O)[O-])c(C(F)(F)F)c2)CC1)N1CCN(Cc2oc3ccc(F)cc3c2Cl)CC1 [Compound 312, 1-[4-(3-chloro-5-fluoro-benzofuran-2-ylmethyl)-piperazin-1-yl]-2-[4-(4-nitro-3-trifluoromethyl-phenylamino)-cyclohexyloxy]-ethanone] as the molecule, how does the inhibition at 5 µg/mL read?
**A.** Its inhibition at 5 µg/mL is ≥ 90%.

**Q.** For O=[N+]([O-])c1ccc(N[C@H]2CC[C@H](OCC(=S)N3CCN(c4ccc5cc(F)ccc5n4)CC3)CC2)cc1C(F)(F)F [Compound 264, 1-[4-(6-fluoro-quinolin-2-yl)-piperazin-1-yl]-2-[4-(4-nitro-3-trifluoro-methyl-phenylamino)-cyclohexyloxy]-ethanethione], which inhibition at 5 µg/mL is on record?
**A.** The inhibition at 5 µg/mL was ≥ 90%.

**Q.** C[C@@H]1CN(C(=O)CO[C@H]2CC[C@H](Nc3ccc([N+](=O)[O-])c(C(F)(F)F)c3)CC2)C[C@H](C)N1c1ccc2cc(F)ccc2n1 [Compound 381, 1-[(3S,5R)-4-(6-fluoro-quinolin-2-yl)-3,5-dimethyl-piperazin-1-yl]-2-[4-(4-nitro-3-trifluoromethyl-phenylamino)-cyclohexyloxy]-ethanone] was tested. Which inhibition at 5 µg/mL did it give?
**A.** The inhibition at 5 µg/mL was ≥ 90%.

**Q.** With O=C(NCCO[C@H]1CC[C@H](Nc2ccc([N+](=O)[O-])c(C(F)(F)F)c2)CC1)C(=O)Nc1ccc2cc(Cl)ccc2n1 [Compound 241, N^1-(6-chloroquinolin-2-yl)-N^2-(2-(-4-(4-nitro-3-(trifluoromethyl)phenylamino)cyclohexyloxy)ethyl)oxalamide] as the molecule, how does the inhibition at 5 µg/mL read?
**A.** The inhibition at 5 µg/mL was ≥ 90%.

What follows are molecules tested on microfilaria of Dirofilaria immitis (assay: Method F: microfilaria of Dirofilaria immitis, survival at 24 hours). Conditions: survival of microfilaria at 24 hours.

**Q.** For Cc1cc(N2CCN(CC(C)C(=O)N3CCC(Nc4ccc([N+](=O)[O-])c(C(F)(F)F)c4)CC3)CC2)nc2ccccc12 (stereo not drawn) [Compound 101, 2-methyl-3-[4-(4-methylquinolin-2-yl)piperazin-1-yl]-1-(4-[[4-nitro-3-(trifluoromethyl)phenyl]amino]piperidin-1-yl)propan-1-one], which EC50 is on record?
**A.** The EC50 was < 1 µg/mL.

**Q.** How did the EC50 turn out when N#Cc1ccc(NC2CCN(C(=O)CCCN3CCN(c4ccc5ccccc5n4)CC3)CC2)cc1C(F)(F)F [Compound 94, 4-[(1-[4-[4-(quinolin-2-yl)piperazin-1-yl]butanoyl]piperidin-4-yl)amino]-2-(trifluoromethyl)benzonitrile] was run?
**A.** Its EC50 is < 5 µg/mL.

**Q.** With O=C(COc1ccc2ccc([N+](=O)[O-])c(C(F)(F)F)c2c1)N1CCN(c2ccc(Cl)cn2)CC1 [Compound 114, 1-[4-(5-chloropyridin-2-yl)piperazin-1-yl]-2-[[7-nitro-8-(trifluoromethyl)naphthalen-2-yl]oxy]ethan-1-one] as the molecule, how does the EC50 read?
**A.** Its EC50 is < 5 µg/mL.
